Reference: patent US20200237766A1, “PKM2 ACTIVATORS IN COMBINATION WITH REACTIVE OXYGEN SPECIES FOR TREATMENT OF CANCER” (TOLERO PHARMACEUTICALS, INC., priority 2017, published 2020)
Where two headings read alike, the source gives them in different places.

Biological target: PKM2 (Homo sapiens, UniProt P14618)
Assay: PKM2 activation biochemical assay (AC50 / max. response vs fructose 1,6-bisphosphate)
Settings: for Max. Resp. (%): % maximum response in a biochemical assay as compared with Fructose 1,6-bisphosphate
[1] = biochemical assay, read-out: PKM2 AC50

PKM2, sequence (P14618 whole entry): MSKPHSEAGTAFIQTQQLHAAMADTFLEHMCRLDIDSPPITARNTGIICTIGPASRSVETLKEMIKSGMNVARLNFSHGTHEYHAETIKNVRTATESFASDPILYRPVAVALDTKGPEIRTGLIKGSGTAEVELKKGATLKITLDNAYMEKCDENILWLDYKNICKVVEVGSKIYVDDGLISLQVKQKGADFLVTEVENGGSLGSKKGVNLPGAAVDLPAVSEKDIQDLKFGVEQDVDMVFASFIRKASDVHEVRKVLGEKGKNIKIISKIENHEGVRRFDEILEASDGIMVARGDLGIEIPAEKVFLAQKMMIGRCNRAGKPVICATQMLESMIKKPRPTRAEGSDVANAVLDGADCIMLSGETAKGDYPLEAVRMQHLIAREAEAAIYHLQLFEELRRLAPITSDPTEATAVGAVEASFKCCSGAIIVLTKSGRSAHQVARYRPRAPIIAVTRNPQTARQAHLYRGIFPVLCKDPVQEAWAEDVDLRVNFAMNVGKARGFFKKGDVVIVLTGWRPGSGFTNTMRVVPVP

Structure (SMILES)	AC50 [1] [nM]	Max. Resp. (%)	AC50 [nM]
Cn1cc(C(=O)c2cccc(Cl)c2Cl)cc1C(N)=O [CA2]	17000		
Cn1cc(C(=O)c2cccc(Cl)c2Cl)cc1C(=O)NCNC(=O)c1cc(C(=O)c2cccc(Cl)c2Cl)cn1C [CA4]	3.2		
Cn1cc(C(=O)c2cccc(Cl)c2Cl)cc1C(=O)NCCNC(=O)c1cc(C(=O)c2cccc(Cl)c2Cl)cn1C [CA5]	14		
O=C(c1cc(C(F)(F)F)n[nH]1)N(Cc1ccc(O)cc1F)CC1CCC1 [Compound 1]		100	
N#Cc1cc(C(=O)N(Cc2ccc(O)cc2F)CC2CCC2)[nH]n1 [Compound 2]		39	3790
Nc1cc(C(=O)N(Cc2ccc(O)cc2F)CC2CCC2)[nH]n1 [Compound 3]	43800	45	
CC(c1ccccc1)N(CC1CCC1)C(=O)c1cc(N)n[nH]1 (stereo not shown) [Compound 4]	1480	52	
CC(c1ccccc1)N(CC1CCC1)C(=O)c1cc(C(F)(F)F)n[nH]1 (stereo not shown) [Compound 5]	4650	106	
O=C(c1cc(C(F)(F)F)n[nH]1)N(Cc1cccc2[nH]ccc12)CC1CCC1 [Compound 6]		100	
O=C(c1cc(C(F)(F)F)n[nH]1)N(Cc1cccc2[nH]c(=O)sc12)CC1CCC1 [Compound 7]	3450	87	
O=C(c1cc(Cl)n[nH]1)N(Cc1cccc2[nH]c(=O)sc12)CC1CCC1 [Compound 9]	15400	80	
O=C(c1cc(Br)n[nH]1)N(Cc1cccc2[nH]c(=O)sc12)CC1CCC1 [Compound 10]	2740	127	
O=C(c1cc(Br)n[nH]1)N(Cc1ccc(O)cc1F)CC1CNC1 [Compound 11]		61	10400
O=C(c1cc(C(F)(F)F)n[nH]1)N(Cc1cccc2[nH]ccc12)CC1COC1 [Compound 12]	3270	101	
CC(C)(C)CN(Cc1cccc2[nH]ccc12)C(=O)c1cc(C(F)(F)F)n[nH]1 [Compound 13]	49100	33	
O=C(c1cc(C(F)(F)F)n[nH]1)N(Cc1cccc2c1CCN2)CC1CCC1 [Compound 14]		81	
O=C(c1cc(C(F)(F)F)n[nH]1)N(Cc1ccc(O)cc1F)CC1COC1 [Compound 15]	150	102	
CCCC(C)N(Cc1ccccc1)C(=O)c1cc(C(F)(F)F)n[nH]1 (stereo not shown) [Compound 16]	74800	22	
CCCCCN(Cc1ccccc1F)C(=O)c1cc(C(F)(F)F)n[nH]1 [Compound 17]	138	83	
CCCCCN(Cc1ccccc1)C(=O)c1cc(C(F)(F)F)n[nH]1 [Compound 19]	920	76	

Structure (SMILES)	AC50 [1] [nM]	Max. Resp. (%)	AC50 [nM]
O=C(c1cc(C(F)(F)F)n[nH]1)N(Cc1ccccc1F)CC1COC1 [Compound 20]	12000	70	
O=C(c1cc(C(F)(F)F)n[nH]1)N(Cc1ccc(O)cc1F)C1CCOCC1 [Compound 21]	> 10000		
O=C(c1cc(C(F)(F)F)n[nH]1)N(Cc1ccccc1F)C1CCOCC1 [Compound 22]	1520	99	
COCCCN(Cc1ccccc1F)C(=O)c1cc(C(F)(F)F)n[nH]1 [Compound 23]	7540	75	
CCOCCN(Cc1ccc(O)cc1F)C(=O)c1cc(C(F)(F)F)n[nH]1 [Compound 24]	210	100	
O=C(c1cc(C(F)(F)F)n[nH]1)N(Cc1ccccc1F)c1ncco1 [Compound 25]	53000	35	
O=C(c1cc(C(F)(F)F)n[nH]1)N(CCC1CCOC1)Cc1ccccc1F (stereo not shown) [Compound 26]	377	99	
O=C(c1cc(C(F)(F)F)n[nH]1)N(Cc1ccccc1Cl)CC1COC1 [Compound 27]		47	33000
CCOCCN(Cc1ccccc1Cl)C(=O)c1cc(C(F)(F)F)n[nH]1 [Compound 29]		87	
CCOCCN(Cc1ccccc1F)C(=O)c1cc(C(F)(F)F)n[nH]1 [Compound 30]		72	
COCCCN(Cc1ccccc1Cl)C(=O)c1cc(C(F)(F)F)n[nH]1 [Compound 31]	9590	82	
O=C(c1cc(C(F)(F)F)n[nH]1)N(CCC1CCOCC1)Cc1ccccc1Cl [Compound 32]	1000	107	
O=C(c1cc(C(F)(F)F)n[nH]1)N(CCC1CCOC1)Cc1c(Cl)cccc1Cl (stereo not shown) [Compound 33]	4030	81	
O=C(c1cc(C(F)(F)F)n[nH]1)N(CCC1CCOC1)Cc1ccc(O)cc1F (stereo not shown) [Compound 34]	77	109	
O=C(c1cc(C(F)(F)F)n[nH]1)N(Cc1ccccc1Cl)C1CCOCC1 [Compound 35]		59	5080
O=C(c1cc(C(F)(F)F)n[nH]1)N(CCC1CCCOC1)Cc1ccccc1Cl (stereo not shown) [Compound 36]	1220	88	
CC(C)OCCN(Cc1ccccc1Cl)C(=O)c1cc(C(F)(F)F)n[nH]1 [Compound 37]	42000	37	
CCOCCCN(Cc1ccccc1Cl)C(=O)c1cc(C(F)(F)F)n[nH]1 [Compound 38]	33000	47	
O=C(c1cc(C(F)(F)F)n[nH]1)N(CCOC1CCCC1)Cc1ccccc1F [Compound 39]	47000	30	
O=C(c1cc(C(F)(F)F)n[nH]1)N(CCC1CCOC1)Cc1c(F)cccc1F (stereo not shown) [Compound 40]		114	1170

Structure (SMILES)	AC50 [1] [nM]	Max. Resp. (%)	AC50 [nM]
O=C(c1cc(C(F)(F)F)n[nH]1)N(CCC1CCOCC1)Cc1ccccc1F [Compound 41]	1260	118	
CCOCCN(Cc1c(Cl)cccc1Cl)C(=O)c1cc(C(F)(F)F)n[nH]1 [Compound 42]	8780	76	
O=C(c1cc(C(F)(F)F)n[nH]1)N(CCC1CCOC1)Cc1ccccc1Cl (stereo not shown) [Compound 43]		110	1330
O=C(c1cc(C(F)(F)F)n[nH]1)N(CCC1CCCCO1)Cc1ccccc1Cl (stereo not shown) [Compound 44]	50000	32	
O=C(c1cc(C(F)(F)F)n[nH]1)N(Cc1ccccc1F)CC1CCOCC1 [Compound 45]	25100	52	
O=C(c1cc(C(F)(F)F)n[nH]1)N(CCC1CCCO1)Cc1ccccc1F (stereo not shown) [Compound 46]	13400	70	
CO[C@H]1CC[C@H](N(Cc2ccccc2F)C(=O)c2cc(C(F)(F)F)n[nH]2)CC1 [Compound 47]	435	89	
CO[C@H]1CC[C@H](N(Cc2cccc(F)c2)C(=O)c2cc(C(F)(F)F)n[nH]2)CC1 [Compound 48]	8580	80	
CO[C@H]1CC[C@H](N(Cc2c(F)cccc2F)C(=O)c2cc(C(F)(F)F)n[nH]2)CC1 [Compound 49]	914	122	
CO[C@H]1CC[C@H](N(Cc2cc(F)ccc2F)C(=O)c2cc(C(F)(F)F)n[nH]2)CC1 [Compound 50]		90	1670
CO[C@H]1CC[C@H](N(Cc2cc(F)cc(F)c2)C(=O)c2cc(C(F)(F)F)n[nH]2)CC1 [Compound 51]	50400	31	
CO[C@H]1CC[C@H](N(Cc2ccccc2Cl)C(=O)c2cc(C(F)(F)F)n[nH]2)CC1 [Compound 52]	879	100	
CC(C)O[C@H]1CC[C@H](N(Cc2ccccc2Cl)C(=O)c2cc(C(F)(F)F)n[nH]2)CC1 [Compound 53]	2290	63	
CO[C@H]1CC[C@H](N(Cc2cccc(N)c2)C(=O)c2cc(C(F)(F)F)n[nH]2)CC1 [Compound 54]	365	93	
CCO[C@H]1CC[C@H](N(Cc2ccccc2F)C(=O)c2cc(C(F)(F)F)n[nH]2)CC1 [Compound 55]		101	469
CO[C@H]1CC[C@H](N(Cc2ncccc2Cl)C(=O)c2cc(C(F)(F)F)n[nH]2)CC1 [Compound 56]		48	2580
O=C(c1cc(C(F)(F)F)n[nH]1)N(CCC1CCC2(CC1)OCCO2)Cc1ccccc1F [Compound 59]	494	100	
O=C1CCC(CCN(Cc2ccccc2F)C(=O)c2cc(C(F)(F)F)n[nH]2)CC1 [Compound 60]	101	105	
O=C(c1cc(C(F)(F)F)n[nH]1)N(CCC1CCS(=O)(=O)C1)Cc1ccccc1Cl (stereo not shown) [Compound 62]		105	273
